Reference: publication PMC6838142, “Nano-Antagonist Alleviates Inflammation and Allows for MRI of Atherosclerosis” (Nanotheranostics, 2019)
Entries after “also recorded” stand apart in the source; their conditions may differ.

Tests used:
BMDMs = experiment: DCFDA ROS assay; type: cell-based, mouse; conditions: LPS (100 ng/mL) BMDMs, 12 experiments
Procedure: GSH /GSSG, lactate dehydrogenase (LDH) and DCFDA assays were performed according to the manufacturer's instructions. The assays were purchased from vendors as indicated in Supplemental Table S1.

RAW cells = experiment: Fluorescence microscopy of binding and uptake in RAW cells; type: cell-based, mouse
Source text: Figure 1 Screening identifies CCTV as an anti-inflammatory nanoparticle with high affinity for CC chemokine receptor 2. A) A screening of a small library of nanoparticles in lipopolysaccharide (LPS)-stimulated macrophage reporter cells (RAW-Blue) identified CCTV, which downregulates nuclear factor-kappa B (NF-κB) activity. Each point on the plot represents a relative activity of NF-κB (X-coordinate) and corresponding nanoparticle content per mg of cell protein (Y-coordinate) calculated from nanoparticle fluorescence. […] Dexamethasone (Dex) is an NF-κB inhibitor and was used as a positive control. Vehicle-treated and unstained (US) cells served as a negative control. B) CCTV binding to the cell surface was validated in RAW cells using fluorescence microscopy. The cells were stained at 4 °C or room temperature for 30 min with CCTV or vehicle nanoparticles (sudo-colored green). Lysosomes were visualized after staining with LAMP1 antibody (red). Nuclei were stained using Hoechst 33342 (blue). C) The uptake of CCTV was inhibited in the presence of 5 µM cytochalasin D (cyto D). DMSO served as vehicle control. Calcein AM was used for whole cell staining. D) CCTV binding to a receptor on the cell surface was studied by flow cytometry in the presence and absence of the excess (1 mM) of the free peptide. E) The Basic Local Alignment Search Tool (BLAST) analysis determined that CCTV peptide sequence repeats in mouse and human CC chemokine receptor family. Only the first 50 amino acids are shown. F) Chemical structure of CCTV and its mirror analog VTCC and their possible conjugation strategies that include N- (N-term.) and C-terminus (C-term.) as well as sulfhydryl attachment. […]
For a targeted nanotherapy to be effective, the nanoparticles must have affinity to a specific cell type, usually determined by cell surface binding. […] Thus, we used the mouse macrophage reporter cell line RAW-Blue that allowed for monitoring activity of Nuclear Factor-kappa B (NF-kB) and also enabled In vitro quantitation of nanoparticle binding to the cell surface. […]

RAW-Blue cells = experiment: Nanoparticle cell-surface binding/uptake in RAW-Blue cells (rhodamine fluorescence); type: cell-based, mouse; conditions: 1 and 10 µM nanoparticles with 1% rhodamine; 550/620 nm
Procedure: (§1) A schematic representation of nanoparticle screening is depicted in Supplementary Figure S4. Briefly, RAW-Blue NFkB reporter cells were cultured as per the manufacturer's recommendations. Cells were seeded and cultured overnight in black opaque 96-well plates with a clear bottom at 50,000 per well. Cells were then treated with 1 and 10 µM of nanoparticles containing 1% rhodamine and positive and negative controls (see below) for 30 min on ice followed by washing steps with cold PBS. Next, lipopolysaccharide (LPS) was added at 100 ng/mL and incubated for 6 h at 37 °C, following which the cells were washed again and incubated for 18 h at 37 °C in fresh medium. Next, 20 µL of supernatant was collected and assayed using SEAP detection reagent in a separate clear bottom 96-well plate as per Invivogen instructions (http://www.invivogen.com). Absorbance at OD 650 nm was recorded and was indicative of NFkB activation. In parallel, cells in the opaque plate were washed again and fluorescence was read at 550 nm excitation and 620 nm emission. This signal from rhodamine was indicative of nanoparticle uptake. […] All analysis was performed using Molecular Devices i3 multi-mode plate reader and SoftMax Pro software version 6.2 (Molecular Devices).

NF-kB = experiment: Nanoparticle screening: NFkB activation in RAW-Blue reporter cells; type: cell-based, mouse
Procedure: as §1

[1] = test system: nanoparticle-targeted cells in atherosclerotic plaque; experiment: mRNA analysis of laser-captured nanoparticle-positive plaque areas; type: in vivo, mouse; conditions: single dose, 24 h, CCTV vs VTCC, 3-4 animals
Procedure: Twenty-four hours after nanoparticle injection (see above), mice were euthanized and abdominal aortas were isolated and embedded in Optimal Cutting Temperature compound. After cryotome-sectioning, resulting in 20-30 slides per mouse, 15 slides were sent to Ohio State laser capture microdissection core lab for capture and analysis. The rest of the slides were processed as follows: after fixation in methanol:acetone 50:50 at -20 °C, slides were hydrated in PBS, blocked for 30 min in fish serum (Aqua Block) and stained for 1 h with primary antibodies against F4/80 followed washing and staining with HRP-conjugated secondary antibody for 30 min. DAB peroxidase kit was then used as per manufacturer's instructions followed by mounting. DAB and antibody staining (but not wash steps) was omitted in slides designated for nanoparticle fluorescence visualization. Nanoparticles fluorescence was visualized with Zeiss 510 LSM-meta confocal microscope and 20x objective. DAB F4/80 staining was visualized with Nikon FN1 microscope and same power objective.

CCTV
ROS production (BMDMs): inhibited ROS production in response to LPS; also recorded: significantly blunted | uptake in presence of cytochalasin D (RAW cells; 5 µM cytochalasin D, DMSO vehicle control): inhibited | cell-surface binding at 4oC (RAW cells; RAW cells, 4 °C, 30 min, vs vehicle nanoparticles): rapidly bound to the cell surface | uptake at room temperature (RAW cells; RAW cells, room temperature, LAMP1 co-staining): mediated by endocytosis | cell-surface binding (RAW-Blue cells): high cell-surface binding | NF-kB activity compared with dexamethasone (NF-kB; 10 µM nanoparticles vs Dex 1 mM, LPS 100 ng/mL): almost to the same level as that in cells treated with NF-kB inhibitor dexamethasone (Dex) at 1 mM | NF-kB activity (NF-kB; 1 and 10 µM nanoparticles, 30 min on ice, LPS 100 ng/mL 6 h, SEAP OD 650 nm): significantly downregulated NF-kB activity | Arg1 mRNA in nanoparticle-targeted plaque cells [1]: slightly upregulated in CCTV-targeted cells, however this was not significant | Ccl2 mRNA in nanoparticle-targeted plaque cells [1]: downregulated | Il6 mRNA in nanoparticle-targeted plaque cells [1]: downregulated
